This test concerns Escherichia coli ATCC 25922. The experiment in a line: Minimum inhibitory concentration (MIC), CLSI broth micro-dilution, E. coli. To be noted: Escherichia coli. In kind it is cell-based. The method, boiled down: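 Antibacterial potency is measured as MIC by the CLSI broth dilution method. Bacteria at OD600 0.0005 in Tween-80-supplemented cation-adjusted Mueller Hinton broth face ten twofold compound dilutions for 22 h at 35° C.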

Setting [1] is: ATCC25922, 22 h, Table 7, cation adjusted Mueller Hinton Broth + 0.002% Tween-80, 35° C.
[2] abbreviates: ATCC25922, 22 h, Table 6, cation adjusted Mueller Hinton Broth + 0.002% Tween-80, 35° C.
Setting [3] is: ATCC25922, Table 6, cation adjusted Mueller Hinton Broth + 0.002% Tween-80, 35° C., 22 hours.

Each structure is given as a SMILES string.

A word on the MIC: it is the lowest concentration that inhibits growth of the organism.

In the case of `Cc1nc(-c2ccc(C(C)(C)C)cc2)nc(C)c1C(=O)N[C@@H](CCN)C(=O)N(C)[C@@H]1C(=O)N[C@@H](C)C(=O)N[C@H](C(=O)NCC#N)Cc2ccc(OCCN)c(c2)-c2cc1ccc2CN` (racemic) [Compound 634, rac-(8S,11S,14S)-3-(2-aminoethoxy)-18-(aminomethyl)-N-(cyanomethyl)-11-methyl-14-[methyl-[rac-(2S)-4-amino-2-[[2-(4-tert-butylphenyl)-4,6-dimethyl-pyrimidine-5-carbonyl]amino]butanoyl]amino]-10,13-dioxo-9,12-diazatricyclo[13.3.1.12,6]icosa-1(18),2,4,6(20),15(19),16-hexaene-8-carboxamide], the minimal inhibitory concentration (MIC) under setting [1] came to 0.25 µM.
Consider `Cc1nc(-c2ccc(C(C)(C)C)cc2)ncc1C(=O)N[C@@H](CCN)C(=O)N(C)[C@@H]1C(=O)N[C@@H](C)C(=O)N[C@H](C(=O)O)Cc2ccc(OCCN)c(c2)-c2cc1ccc2OCCN` (racemic) [Compound 640, rac-(8S,11S,14S)-3,18-bis(2-aminoethoxy)-11-methyl-14-[methyl-[rac-(2S)-4-amino-2-[[2-(4-tert-butylphenyl)-4-methyl-pyrimidine-5-carbonyl]amino]butanoyl]amino]-10,13-dioxo-9,12-diazatricyclo [13.3.1.12,6]icosa-1(18),2(20),3,5,15(19), 16-hexaene-8-carboxylic acid], for which, for the setting “ATCC25922, 22 h, Table 8, cation adjusted Mueller Hinton Broth + 0.002% Tween-80, 35° C.”, the MIC was found to be 0.25 µM.
As to `Cc1nc(-c2ccc(C(C)(C)C)cc2)nc(C)c1C(=O)N[C@@H](CCN)C(=O)N(C)[C@@H]1C(=O)N[C@@H](C)C(=O)N[C@H](C(=O)NCC#N)Cc2ccc3c(c2)-c2cc1ccc2OCC(O)(CN)CO3` (stereo partly drawn) [Compound 440], under setting [2], the MIC was 1 µM.
On to `C[C@@H]1NC(=O)[C@@H](N(C)C(=O)[C@H](CCN)NC(=O)C2C3CC(c4ccc(C(C)(C)C)cc4)CC32)c2ccc(OCCN)c(c2)-c2cc(ccc2OCCN)C[C@@H](C(=O)NCC#N)NC1=O` (stereo partly drawn) [Compound 488], for which the MIC under setting [2] is 0.5 µM.
Turning to `CC(=O)NCC[C@H](NC(=O)c1c(C)nc(-c2ccc(OC3CCCCC3)cc2)nc1C)C(=O)N(C)[C@@H]1C(=O)N[C@@H](C)C(=O)N[C@H](C(=O)NCC#N)Cc2ccc(OCCN)c(c2)-c2cc1ccc2OCCN` [Compound 496, (8S,11S,14S)-14-[[(2S)-4-acetamido-2-[[2-[4-(cyclohexoxy)phenyl]-4,6-dimethyl-pyrimidine-5-carbonyl]amino]butanoyl]-methyl-amino]-3,18-bis(2-aminoethoxy)-N-(cyanomethyl)-11-methyl-10,13-dioxo-9,12-diazatricyclo[13.3.1.12,6]icosa-1(18),2(20),3,5,15(19),16-hexaene-8-carboxamide], under setting [3], the MIC turned out to be 1 µM.
As for `Cc1nc(-c2ccc(OC3CCCCC3)cc2)nc(C)c1C(=O)N[C@@H](CC(N)=O)C(=O)N(C)[C@@H]1C(=O)N[C@@H](C)C(=O)N[C@H](C(=O)NCC#N)Cc2ccc(OCCN)c(c2)-c2cc1ccc2OCCN` [Compound 506, (2S)-N-[(7S,10S,13S)-3,18-bis(2-aminoethoxy)-13-(cyanomethylcarbamoyl)-10-methyl-8,11-dioxo-9,12-diazatricyclo[13.3.1.12,6]icosa-1(19),2,4,6(20),15,17-hexaen-7-yl]-2-[[2-[4-(cyclohexoxy)phenyl]-4,6-dimethyl-pyrimidine-5-carbonyl]amino]-N-methyl-butanediamide], under setting [3], the MIC turned out to be 0.83 µM.
Same read-out and setting: the value for `CC[C@H](NC(=O)c1c(C)nc(-c2ccc(OC3CCCCC3)cc2)nc1C)C(=O)N[C@@H](CCN)C(=O)N(C)[C@@H]1C(=O)N[C@@H](C)C(=O)N[C@H](C(=O)NCC#N)Cc2ccc(OCCN)c(c2)-c2cc1ccc2OCCN` [Compound 510, (8S,11S,14S)-14-[[(2S)-4-amino-2-[[(2S)-2-[[2-[4-(cyclohexoxy)phenyl]-4,6-dimethyl-pyrimidine-5-carbonyl]amino]butanoyl]amino]butanoyl]-methyl-amino]-3,18-bis(2-aminoethoxy)-N-(cyanomethyl)-11-methyl-10,13-dioxo-9,12-diazatricyclo[13.3.1.12,6]icosa-1(18),2(20),3,5,15(19),16-hexaene-8-carboxamide] was 1.5 µM; that for `Cc1nc(-c2ccc(OC3CCCCC3)cc2)nc(C)c1C(=O)N[C@@H](CCNC(=O)CO)C(=O)N(C)[C@@H]1C(=O)N[C@@H](C)C(=O)N[C@H](C(=O)NCC#N)Cc2ccc(OCCN)c(c2)-c2cc1ccc2OCCN` [Compound 511, (8S,11S,14S)-3,18-bis(2-aminoethoxy)-N-(cyanomethyl)-14-[[(2S)-2-[[2-[4-(cyclohexoxy)phenyl]-4,6-dimethyl-pyrimidine-5-carbonyl]amino]-4-[(2-hydroxyacetyl)amino]butanoyl]-methyl-amino]-11-methyl-10,13-dioxo-9,12-diazatricyclo[13.3.1.12,6]icosa-1(18),2(20),3,5,15(19),16-hexaene-8-carboxamide] was 2 µM.
Consider `Cc1nc(-c2ccc(OC3CCCCC3)cc2)nc(C)c1C(=O)N[C@@H](CCNC(=O)NO)C(=O)N(C)[C@@H]1C(=O)N[C@@H](C)C(=O)N[C@H](C(=O)NCC#N)Cc2ccc(OCCN)c(c2)-c2cc1ccc2OCCN` [Compound 512, (8S,11S,14S)-3,18-bis(2-aminoethoxy)-N-(cyanomethyl)-14-[[(2S)-2-[[2-[4-(cyclohexoxy)phenyl]-4,6-dimethyl-pyrimidine-5-carbonyl]amino]-4-(hydroxycarbamoylamino)butanoyl]-methyl-amino]-11-methyl-10,13-dioxo-9,12-diazatricyclo[13.3.1.12,6]icosa-1(18),2(20),3,5,15(19),16-hexaene-8-carboxamide], for which, under setting [2], the MIC was found to be 1 µM.
For `CC(=O)Nc1cc2cc(c1O)-c1cc(ccc1OCCN)[C@H](N(C)C(=O)[C@H](CCN)NC(=O)c1c(C)nc(-c3ccc(C(C)(C)C)cc3)nc1C)C(=O)N[C@@H](C)C(=O)N[C@H](C(=O)NCC#N)C2` [Compound 559, (4S,7S,10S)-2^5-acetamido-10-((S)-4-amino-2-(2-(4-(tert-butyl)phenyl)-4,6-dimethylpyrimidine-5-carboxamido)-N-methylbutanamido)-1^6-(2-aminoethoxy)-N-(cyanomethyl)-2^6-hydroxy-7-methyl-6,9-dioxo-5,8-diaza-1,2(1,3)-dibenzenacyclodecaphane-4-carboxamide], the MIC under setting [1] came out at 0.38 µM.
Turning to `Cc1nc(-c2ccc(C(C)(C)C)cc2)nc(C)c1C(=O)N[C@@H](CCN)C(=O)N(C)[C@@H]1C(=O)N[C@@H](C)C(=O)N[C@H](C(=O)NCC#N)Cc2cc(F)c(O)c(c2)-c2cc1ccc2OCCN` [Compound 560, (4S,7S,10S)-10-((S)-4-amino-2-(2-(4-(tert-butyl)phenyl)-4,6-dimethylpyrimidine-5-carboxamido)-N-methylbutanamido)-1^6-(2-aminoethoxy)-N-(cyanomethyl)-2^5-fluoro-2^6-hydroxy-7-methyl-6,9-dioxo-5,8-diaza-1,2(1,3)-dibenzenacyclodecaphane-4-carboxamide], under setting [1], the MIC was 0.25 µM.
`Cc1nc(-c2ccc(C(C)(C)C)cc2)nc(C)c1C(=O)N[C@@H](CCN)C(=O)N(C)[C@@H]1C(=O)N[C@@H](C)C(=O)N[C@H](C(=O)NCC#N)Cc2ccc(OCCN)c(c2)-c2cc1cc(OCCN)c2O` [Compound 583, (8S,11S,14S)-14-[[(2S)-4-amino-2-[[2-(4-tert-butylphenyl)-4,6-dimethyl-pyrimidine-5-carbonyl]amino]butanoyl]-methyl-amino]-3,17-bis(2-aminoethoxy)-N-(cyanomethyl)-18-hydroxy-11-methyl-10,13-dioxo-9,12-diazatricyclo[13.3.1.12,6]icosa-1(18),2(20),3,5,15(19),16-hexaene-8-carboxamide]: the MIC under setting [1] was found to be 0.17 µM.
On to `COc1c(NCCN)cc2cc1-c1cc(ccc1O)C[C@@H](C(=O)NCC#N)NC(=O)[C@H](C)NC(=O)[C@H]2N(C)C(=O)[C@H](CCN)NC(=O)c1c(C)nc(-c2ccc(C(C)(C)C)cc2)nc1C` [Compound 630, (8S,11S,14S)-14-[[(2S)-4-amino-2-[[2-(4-tert-butylphenyl)-4,6-dimethyl-pyrimidine-5-carbonyl]amino]butanoyl]-methyl-amino]-17-(2-aminoethylamino)-N-(cyanomethyl)-3-hydroxy-18-methoxy-11-methyl-10,13-dioxo-9,12-diazatricyclo[13.3.1.12,6]icosa-1(18),2(20),3,5,15(19),16-hexaene-8-carboxamide], for which the MIC under setting [1] came to 0.25 µM.
On the same count and under the same terms, the value for `Cc1nc(-c2ccc(C(C)(C)C)cc2)nc(C)c1C(=O)N[C@@H](CCN)C(=O)N(C)[C@@H]1C(=O)N[C@@H](C)C(=O)N[C@H](C(=O)NCC#N)Cc2ccc(O)c(c2)-c2cc1cc(OCCN)c2O` [Compound 632, (8S,11S,14S)-14-[[(2S)-4-amino-2-[[2-(4-tert-butylphenyl)-4,6-dimethyl-pyrimidine-5-carbonyl]amino]butanoyl]-methyl-amino]-17-(2-aminoethoxy)-N-(cyanomethyl)-3,18-dihydroxy-11-methyl-10,13-dioxo-9,12-diazatricyclo[13.3.1.12,6]icosa-1(18),2(20),3,5,15(19),16-hexaene-8-carboxamide] was 0.5 µM; that for `Cc1nc(-c2ccc(C(C)(C)C)cc2)nc(C)c1C(=O)N[C@@H](CCN)C(=O)N(C)[C@@H]1C(=O)N[C@@H](C)C(=O)N[C@H](C(=O)NCC#N)Cc2ccc(O)c(c2)-c2cc1cc(OCCN)c2OCCN` [Compound 633, (8S,11S,14S)-14-[[(2S)-4-amino-2-[[2-(4-tert-butylphenyl)-4,6-dimethyl-pyrimidine-5-carbonyl]amino]butanoyl]-methyl-amino]-17,18-bis(2-aminoethoxy)-N-(cyanomethyl)-3-hydroxy-11-methyl-10,13-dioxo-9,12-diazatricyclo[13.3.1.12,6]icosa-1(18),2(20),3,5,15(19),16-hexaene-8-carboxamide] was 0.047 µM.

These data come from US20260274892A1, “MACROCYCLIC BROAD SPECTRUM ANTIBIOTICS” (RQx Pharmaceuticals, Inc., priority 2017, published 2026).
